Test results from patent publication US7919247B2, “Simultaneous quantification of nucleic acids in diseased cells” (Pharmasset, Inc., priority 2000, dated 2011).
Like-named read-outs stand apart in the source and are kept apart here.

Tests used:
[1] = tested on: HIV-1 xxBRU (sensitive strain); test: endogenous viral RT assay of culture supernatant, HIV-1 infected human PBMC
[2] = molecular target: T1, mitochondrial DNA polymerase γ (Homo sapiens, UniProt P54098)
T1 sequence (P54098 1-1239): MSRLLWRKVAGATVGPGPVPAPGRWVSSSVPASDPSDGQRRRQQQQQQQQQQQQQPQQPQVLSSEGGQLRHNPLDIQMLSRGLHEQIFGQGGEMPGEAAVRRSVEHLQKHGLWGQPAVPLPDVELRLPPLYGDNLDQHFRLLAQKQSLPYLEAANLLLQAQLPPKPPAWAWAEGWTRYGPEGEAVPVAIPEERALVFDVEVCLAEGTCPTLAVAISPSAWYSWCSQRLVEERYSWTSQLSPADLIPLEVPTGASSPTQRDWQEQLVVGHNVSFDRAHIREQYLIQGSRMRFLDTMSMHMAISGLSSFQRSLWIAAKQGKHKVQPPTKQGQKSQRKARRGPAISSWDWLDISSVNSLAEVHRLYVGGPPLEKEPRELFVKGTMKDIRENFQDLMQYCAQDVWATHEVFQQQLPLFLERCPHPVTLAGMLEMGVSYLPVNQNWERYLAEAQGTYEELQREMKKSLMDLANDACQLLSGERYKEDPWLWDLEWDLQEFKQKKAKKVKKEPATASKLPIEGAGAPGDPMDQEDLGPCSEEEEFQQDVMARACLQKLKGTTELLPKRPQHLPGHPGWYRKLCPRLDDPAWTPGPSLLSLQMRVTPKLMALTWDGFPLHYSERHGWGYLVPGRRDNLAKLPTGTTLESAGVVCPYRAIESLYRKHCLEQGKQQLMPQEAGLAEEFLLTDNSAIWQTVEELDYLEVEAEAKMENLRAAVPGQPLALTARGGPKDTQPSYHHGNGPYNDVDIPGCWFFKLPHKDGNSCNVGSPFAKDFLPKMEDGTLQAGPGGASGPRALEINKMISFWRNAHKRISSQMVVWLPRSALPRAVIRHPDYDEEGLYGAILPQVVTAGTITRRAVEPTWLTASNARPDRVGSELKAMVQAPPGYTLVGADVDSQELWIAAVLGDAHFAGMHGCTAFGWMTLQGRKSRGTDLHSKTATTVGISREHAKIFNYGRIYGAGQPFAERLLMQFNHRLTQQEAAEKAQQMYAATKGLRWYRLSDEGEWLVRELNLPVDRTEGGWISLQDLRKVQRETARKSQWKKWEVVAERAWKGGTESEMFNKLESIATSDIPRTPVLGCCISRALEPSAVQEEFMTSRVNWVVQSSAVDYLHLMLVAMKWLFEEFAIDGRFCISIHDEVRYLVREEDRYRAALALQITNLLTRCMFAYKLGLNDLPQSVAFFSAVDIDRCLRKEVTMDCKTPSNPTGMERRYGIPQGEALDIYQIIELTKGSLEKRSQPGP
T1 sequence (Q9UHN1 26-485 partner limits assumed): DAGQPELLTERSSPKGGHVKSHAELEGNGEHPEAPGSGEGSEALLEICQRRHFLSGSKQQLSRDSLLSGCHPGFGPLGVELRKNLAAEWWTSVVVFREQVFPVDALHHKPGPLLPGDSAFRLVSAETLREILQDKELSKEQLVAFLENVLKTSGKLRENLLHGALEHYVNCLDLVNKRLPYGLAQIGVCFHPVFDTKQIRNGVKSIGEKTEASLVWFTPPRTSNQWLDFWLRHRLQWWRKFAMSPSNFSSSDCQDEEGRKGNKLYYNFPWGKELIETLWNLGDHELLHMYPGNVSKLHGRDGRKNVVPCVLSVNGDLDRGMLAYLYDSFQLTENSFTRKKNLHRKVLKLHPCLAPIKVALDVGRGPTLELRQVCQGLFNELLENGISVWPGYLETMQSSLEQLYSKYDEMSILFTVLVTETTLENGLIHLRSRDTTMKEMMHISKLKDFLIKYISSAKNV

[3] = molecular target: T2, mitochondrial RNA polymerase (Homo sapiens, UniProt O00411); test: quantitative RT-PCR of mitochondrial COXII RNA calibrated against nuclear RNA transcripts; type: cell-based; conditions: normalized for no treatment
T2 construct: endogenous in cells; HepG2 inferred from the preceding paragraphs
Procedure: Similar results were also obtained if this technology was carried out in a quantitative reverse-transcriptase-PCR protocol. This approach measures the potential inhibition of antiviral compounds for the mitochondrial RNA polymerase, in comparison with the nuclear RNA polymerases I (generating mainly rRNA transcripts), RNA polymerase II (generating mainly mRNA transcripts), or of lesser importance, RNA polymerase III (generating mainly tRNA transcripts). To obtain such results, amplification of either rRNA, or -actin mRNA as calibrator is required.

[4] = tested on: HIV-1 xxBRU (sensitive strain); test: real-time RT-PCR HIV-1 viral load in culture supernatant, infected human PBMC
[5] = molecular target: T1, mitochondrial DNA polymerase γ; test: real-time PCR mitochondrial DNA polymerase toxicity (COXII vs β-actin DNA, comparative Ct) in HepG2 cells; conditions: 7-day incubation with up to 10 μM
CEM = test: MTS/MTT dye toxicity assay; type: cell-based; conditions: CEM cells, evaluated up to 100 μM
Procedure: (§1) After a three day-incubation, or 4 for CEM, or 5 days for PBMC, cell viability and mitochondrial activity were measured in a colorimetric assay using the MTS- or MTT dye (Promega, Wis.).
(§2) The cytotoxicity testing as performed here is a standard technique. Briefly, cells are seeded in 96-well plates at various concentrations (dependent on cell type, duration of assay), typically at 5×10^3 cells per well, in the presence of increasing concentrations of the test compound (0, 1, 3, 10, 33, and 100 μM). After a three day-incubation, cell viability and mitochondrial activity are measured by adding the MTS-dye (Promega), followed by a 3 hours incubation. Afterwards the plates containing the dye are read at 490 nm. Such methodologies are well described and available from the manufacturer (Promega).

VERO = test: MTS/MTT dye toxicity assay; type: cell-based; conditions: Vero cells, evaluated up to 100 μM
Procedure: as §1, §2

[6] = MTS/MTT dye toxicity assay; type: cell-based
Procedure: as §1, §2

PBMC = test: MTS/MTT dye toxicity assay; type: cell-based, human; conditions: human PBMC, evaluated up to 100 μM
Procedure: as §1, §2

[7] = MTS/MTT dye toxicity assay; type: cell-based, human; conditions: human
Procedure: as §1, §2

[8] = xxBRU, RT assay, human PBMC, 5 days
[9] = xxBRU, real-time RT-PCR, human PBMC, 5 days
[10] = Human immunodeficiency virus 1, PBMC, 120 h

T2 sequence (O00411 42-1230): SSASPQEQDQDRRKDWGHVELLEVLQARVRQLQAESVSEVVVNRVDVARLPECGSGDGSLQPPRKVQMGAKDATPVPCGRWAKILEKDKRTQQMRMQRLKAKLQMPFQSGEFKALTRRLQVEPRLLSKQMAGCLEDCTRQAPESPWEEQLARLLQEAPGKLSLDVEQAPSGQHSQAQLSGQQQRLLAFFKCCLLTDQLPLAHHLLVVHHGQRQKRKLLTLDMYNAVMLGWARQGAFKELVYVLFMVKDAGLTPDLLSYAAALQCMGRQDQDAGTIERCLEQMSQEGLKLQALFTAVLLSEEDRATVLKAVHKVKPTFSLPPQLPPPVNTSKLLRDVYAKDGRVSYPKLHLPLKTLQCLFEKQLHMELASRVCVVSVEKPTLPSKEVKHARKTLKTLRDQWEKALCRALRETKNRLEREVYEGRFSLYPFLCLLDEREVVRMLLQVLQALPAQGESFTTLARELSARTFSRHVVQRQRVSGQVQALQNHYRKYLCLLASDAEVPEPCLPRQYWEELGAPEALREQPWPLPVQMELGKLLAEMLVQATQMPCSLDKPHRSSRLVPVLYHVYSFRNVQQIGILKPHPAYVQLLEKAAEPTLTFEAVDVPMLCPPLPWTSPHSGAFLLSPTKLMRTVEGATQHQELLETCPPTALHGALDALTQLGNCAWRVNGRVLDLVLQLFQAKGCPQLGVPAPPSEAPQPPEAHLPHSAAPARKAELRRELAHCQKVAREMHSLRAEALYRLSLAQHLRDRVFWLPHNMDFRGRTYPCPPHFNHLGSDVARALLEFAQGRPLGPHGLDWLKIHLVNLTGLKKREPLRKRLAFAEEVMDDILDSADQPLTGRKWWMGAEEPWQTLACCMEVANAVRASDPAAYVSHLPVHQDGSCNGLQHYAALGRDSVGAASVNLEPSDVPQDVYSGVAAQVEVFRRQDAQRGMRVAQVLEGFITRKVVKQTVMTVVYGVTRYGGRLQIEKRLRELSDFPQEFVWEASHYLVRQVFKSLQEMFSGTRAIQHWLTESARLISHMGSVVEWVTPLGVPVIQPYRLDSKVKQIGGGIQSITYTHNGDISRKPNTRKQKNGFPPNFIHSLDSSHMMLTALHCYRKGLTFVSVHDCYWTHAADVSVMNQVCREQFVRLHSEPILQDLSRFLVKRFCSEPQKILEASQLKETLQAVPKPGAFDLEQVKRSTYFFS

## (−)-FTC [(-) FTC]
[1]; [8]
  EC50: 11 nM
  EC90: 50 nM
[2]
  mitochondrial DNA reduction as compared to the no-drug control: does not induce any significant mitochondrial DNA reduction
[3]
  mitochondrial (COXII) RNA levels: did not affect the COXII RNA levels
[4]; [9]
  EC50: 5.9 nM
  EC90: 88 nM

## Nc1ccn([C@H]2S[C@@H](CO)C=C2F)c(=O)n1 [β-L-d4-2′F-(4-S-pentenyl)-C]
[1]; [10]
  EC50: 1610 nM
  EC90: 11600 nM
[5]
  mitochondrial toxicity (γ-DNA polymerase inhibition): no toxicity
CEM
  cytotoxicity in MTS-dye assay: no cytotoxicity was observed
VERO
  cytotoxicity in MTS-dye assay: no cytotoxicity was observed
[6]; African green monkey, VERO, read-out: CC50
  CC50 at 3 days: > 100000 nM
[6]; human, CEM, read-out: CC50
  CC50 at 4 days: > 100000 nM
[6]; human, HepG2, read-out: CC50
  CC50 at 3 days: > 100000 nM
PBMC
  cytotoxicity in MTS-dye assay: no cytotoxicity was observed
[7]; PBMC, read-out: CC50
  CC50 at 5 days: > 100000 nM
[4]; [10]
  EC50: 400 nM
  EC90: 2680 nM

## Nc1ccn([C@@H]2CS[C@H](CO)O2)c(=O)n1 [3TC]
[1]; [8]
  EC50: 18 nM
  EC90: 77 nM
[4]; [9]
  EC50: 30 nM
  EC90: 120 nM

## Nc1ccn([C@H]2CC[C@@H](CO)O2)c(=O)n1 [D-DDC]
[2]
  mitochondrial DNA reduction as compared to the no-drug control: dose-dependent reduction in mitochondrial DNA synthesis
[3]
  mitochondrial (COXII) RNA levels: significant reduction in mitochondrial RNA levels

## Cc1cn([C@H]2C=C[C@@H](CO)O2)c(=O)[nH]c1=O [d4T]
[1]; [8]
  EC50: 3.4 nM
  EC90: 130 nM
[4]; [9]
  EC50: 2.7 nM
  EC90: 120 nM

## Nc1ccn([C@@H]2S[C@H](CO)C=C2F)c(=O)n1 [β-D-d4-2′F-(4-S-pentenyl)-C]
[1]; [10]
  EC50: 5980 nM
  EC90: 23200 nM
[6]; African green monkey
  CC50 at 3 days: > 100000 nM
[6]; human
  CC50 at 3 days: > 100000 nM
  CC50 at 4 days: > 100000 nM
[7]
  CC50 at 5 days: > 100000 nM
[4]; [10]
  EC50: 2680 nM
  EC90: 18100 nM

## Cc1cn([C@H]2C[C@H](N=[N+]=[N-])[C@@H](CO)O2)c(=O)[nH]c1=O [AZT]
[1]; [8]
  EC50: 3.4 nM
  EC90: 34 nM
[4]; [9]
  EC50: 3.9 nM
  EC90: 36 nM
